Assay results reported in patent US10144706B2 (BRISTOL-MYERS SQUIBB COMPANY, priority 2016, dated 2018).
Like-named read-outs stand apart in the source and are kept apart here.

Target: T1, PD-1/PD-L1 interaction (PD-1-Ig / PD-L1-His) (Homo sapiens, UniProt Q9NZQ7)
T1 construct: hPDL1(18-239)-TVMV-His; TVMV protease site linker (C); made in house; host or cells: HEK293T
Test: PD-1/PD-L1 Homogenous Time-Resolved Fluorescence (HTRF) binding assay
Settings: PD-L1-His 10 nM, PD-1-Ig 20 nM, read-out: Range or IC50
Method in brief: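 HTRF detection used 1 nM europium-cryptate anti-Ig and 20 nM APC anti-His. Compounds first saw 10 nM PD-L1-His for 15 min, and 20 nM PD-1-Ig was then added for another 15 min. Buffer was dPBS plus 0.1% BSA and 0.05% Tween-20. All concentrations are final.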

T1 sequence (Q9NZQ7 with tags, fused parts or gaps): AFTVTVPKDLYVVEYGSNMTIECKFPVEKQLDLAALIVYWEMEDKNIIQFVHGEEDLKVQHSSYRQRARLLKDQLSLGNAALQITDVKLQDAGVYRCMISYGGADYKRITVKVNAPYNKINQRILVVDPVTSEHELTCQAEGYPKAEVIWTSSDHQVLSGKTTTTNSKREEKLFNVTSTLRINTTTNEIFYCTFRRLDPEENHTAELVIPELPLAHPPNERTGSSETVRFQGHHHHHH

Compound | IC50 (IC50 range class) | IC50 (numeric IC50)
Cc1c(COc2cc(OCc3cncc(C#N)c3)c(CN3CC(C(=O)O)C(c4ccccc4Cl)C3)cc2Cl)cccc1-c1cccc(COc2cc(OCc3cncc(C#N)c3)c(CN3CC(C(=O)O)C(c4ccccc4Cl)C3)cc2Cl)c1C (stereo not drawn) [Example 40520] | 90.1 to 1000 nM | 
CO[C@H](C)[C@H](NCc1cc(Cl)c(OCc2cccc(-c3cccc(COc4cc(OCc5cncc(C#N)c5)c(CN[C@H](C(=O)O)[C@@H](C)OC)cc4Cl)c3C)c2C)cc1OCc1cncc(C#N)c1)C(=O)O [Example 40940] | 0.04 to 20 nM | 
Cc1c(OCCCCCN2CC[C@@H](O)C2)cccc1-c1cccc(OCCCN2CC[C@@H](O)C2)c1C [Example 3003, (R)-1-(3-((3′-((5-((R)-3-hydroxypyrrolidin-1-yl)pentyl)oxy)-2,2′-dimethyl-[1,1′-biphenyl]-3-yl)oxy)propyl)pyrrolidin-3-ol] | 0.04 to 20 nM | 
Cc1c(OCCCN2CC[C@@H](O)C2)cccc1-c1cccc(OCCCN2C[C@H](O)C[C@H]2C(=O)O)c1C [Example 2039, (2S,4R)-4-hydroxy-1-(3-((3′-(3-((R)-3-hydroxypyrrolidin-1-yl)propoxy)-2,2′-dimethyl-[1,1′-biphenyl]-3-yl)oxy)propyl)pyrrolidine-2-carboxylic acid] | 1000 to 10000 nM | 
Cc1c(COc2cc(OCc3cncc(C#N)c3)c(CO)cc2Cl)cccc1-c1cccc(COc2cc(OCc3cncc(C#N)c3)c(CN[C@H](C(=O)O)[C@H](C)O)cc2Cl)c1C [Example 50230] | 0.04 to 20 nM | 
Cc1c(OCCCN2CCCC(CO)C2)cccc1-c1cccc(OCCCN2CC[C@@H](O)C2)c1C (mixture of isomers) [Example 2003, (3R)-1-(3-((3′-(3-(3-(hydroxymethyl)piperidin-1-yl)propoxy)-2,2′-dimethyl-[1,1′-biphenyl]-3-yl)oxy)propyl)pyrrolidin-3-ol] | 20.1 to 90 nM | 
CN1CCN(C(=O)c2cc(Cl)c(OCc3cccc(-c4cccc(COc5cc(OCc6cncc(C#N)c6)c(C(=O)N6CCN(C)CC6)cc5Cl)c4Cl)c3Cl)cc2OCc2cncc(C#N)c2)CC1 [Example 80030] | 0.04 to 20 nM | 
N#Cc1cncc(COc2cc(OCc3cccc(-c4cccc(COc5cc(OCc6cncc(C#N)c6)c(C(=O)N6CCS(=O)(=O)CC6)cc5Cl)c4Cl)c3Cl)c(Cl)cc2C(=O)N2CCS(=O)(=O)CC2)c1 [Example 80140] | 0.04 to 20 nM | 
Cc1c(OCCCNC[C@@H](O)CO)cccc1-c1cccc(OCCCN2CC[C@@H](O)C2)c1C [Example 2052, (R)-3-((3-((3′-(3-((R)-3-hydroxypyrrolidin-1-yl)propoxy)-2,2′-dimethyl-[1,1′-biphenyl]-3-yl)oxy)propyl)amino)propane-1,2-diol] | 90.1 to 1000 nM | 
Cc1c(COc2cc(OCc3cncc(C#N)c3)c(CNC[C@H](O)C(=O)O)cc2Cl)cccc1-c1cccc(COc2cc(OCc3cncc(C#N)c3)c(CNC[C@H](O)C(=O)O)cc2Cl)c1C [Example 40220] | 0.04 to 20 nM | 
Cc1c(COc2cc(OCc3cc(F)cc(F)c3)c(CN(C)C(CO)CO)cc2Cl)cccc1-c1cccc(COc2cc(OCc3cc(F)cc(F)c3)c(CN(C)C(CO)CO)cc2Cl)c1C [Example 5005, 2,2′-((((((2,2′-dimethyl-[1,1′-biphenyl]-3,3′-diyl)bis(methylene))bis(oxy))bis(5-chloro-2-((3,5-difluorobenzyl)oxy)-4,1-phenylene))bis(methylene))bis(methylazanediyl))bis(propane-1,3-diol)] | 90.1 to 1000 nM | 
Cc1c(OCCCN[C@@H](Cc2ccncc2)C(=O)O)cccc1-c1cccc(OCCCN2CC[C@@H](O)C2)c1C [Example 2037, (S)-2-((3-((3′-(3-((R)-3-hydroxypyrrolidin-1-yl)propoxy)-2,2′-dimethyl-[1,1′-biphenyl]-3-yl)oxy)propyl)amino)-3-(pyridin-4-yl)propanoic acid] | 90.1 to 1000 nM | 
CC1CCN(C(=O)c2cc(Cl)c(OCc3cccc(-c4cccc(COc5cc(OCc6cncc(C#N)c6)c(C(=O)N6CCC(C)CC6)cc5Cl)c4Cl)c3Cl)cc2OCc2cncc(C#N)c2)CC1 [Example 80120] |  | 105 nM
Cc1c(OCCCN[C@@](C)(CO)C(=O)O)cccc1-c1cccc(OCCCN2CC[C@@H](O)C2)c1C [Example 2013, (S)-3-hydroxy-2-((3-((3′-(3-((R)-3-hydroxypyrrolidin-1-yl)propoxy)-2,2′-dimethyl-[1,1′-biphenyl]-3-yl)oxy)propyl)amino)-2-methylpropanoic acid] | 90.1 to 1000 nM | 
Cc1c(COc2cc(OCc3cncc(C#N)c3)c(CO)cc2Cl)cccc1-c1cccc(COc2cc(OCc3cncc(C#N)c3)c(CN[C@@H](C(=O)O)[C@@H](C)O)cc2Cl)c1C [Example 50190] | 0.04 to 20 nM | 

Other lines, results leading:

IC50 (IC50 range class) | IC50 (numeric IC50) | Compound
20.1 to 90 nM |  | Cc1c(OCCCN[C@@H](c2ccccc2)[C@H](O)CO)cccc1-c1cccc(OCCCN2CC[C@@H](O)C2)c1C [Example 2091, (2S,3S)-3-((3-((3′-(3-((R)-3-hydroxypyrrolidin-1-yl)propoxy)-2,2′-dimethyl-[1,1′-biphenyl]-3-yl)oxy)propyl)amino)-3-phenylpropane-1,2-diol]
0.04 to 20 nM |  | N#Cc1cncc(COc2cc(OCc3cccc(-c4cccc(COc5cc(OCc6cncc(C#N)c6)c(CN[C@@H](CCO)C(=O)O)cc5Cl)c4Cl)c3Cl)c(Cl)cc2CN[C@@H](CCO)C(=O)O)c1 [Example 40190]
90.1 to 1000 nM |  | COc1cc(OCc2cccc(-c3cccc(COc4cc(OC)c(CN(C)Cc5cncnc5)cc4Cl)c3C)c2C)c(Cl)cc1CN(C)Cc1cncnc1 [Example 5038, 1,1′-((((2,2′-dimethyl-[1,1′-biphenyl]-3,3′-diyl)bis(methylene))bis(oxy))bis(5-chloro-2-methoxy-4,1-phenylene))bis(N-methyl-N-(pyrimidin-5-ylmethyl)methanamine)]
0.04 to 20 nM |  | Cc1c(COc2cc(OCc3cncc(C#N)c3)c(CN(C[C@H](O)CO)C(CO)CO)cc2Cl)cccc1-c1cccc(COc2cc(OCc3cncc(C#N)c3)c(CN(C[C@H](O)CO)C(CO)CO)cc2Cl)c1C [Example 2131, 5,5′-((((((2,2′-dimethyl-[1,1′-biphenyl]-3,3′-diyl)bis(methylene))bis(oxy))bis(4-chloro-6-(((1,3-dihydroxypropan-2-yl)((S)-2,3-dihydroxypropyl)amino)methyl)-3,1-phenylene))bis(oxy))bis(methylene))dinicotinonitrile]
 | 31 nM | CCC[C@@H](C(=O)O)N(C)Cc1cc(Cl)c(OCc2cccc(-c3cccc(COc4cc(OCc5cc(F)cc(F)c5)c(CN(C)[C@@H](CCC)C(=O)O)cc4Cl)c3C)c2C)cc1OCc1cc(F)cc(F)c1 [Example 5016, (2S,2′S)-2,2′-((((((2,2′-dimethyl-[1,1′-biphenyl]-3,3′-diyl)bis(methylene))bis(oxy))bis(5-chloro-2-((3,5-difluorobenzyl)oxy)-4,1-phenylene))bis(methylene))bis(methylazanediyl))dipentanoic acid]
90.1 to 1000 nM |  | Cc1c(OCCCNCCn2cccn2)cccc1-c1cccc(OCCCN2CC[C@@H](O)C2)c1C [Example 2008, (R)-1-(3-((3′-(3-((2-(1H-pyrazol-1-yl)ethyl)amino)propoxy)-2,2′-dimethyl-[1,1′-biphenyl]-3-yl)oxy)propyl)pyrrolidin-3-ol]
90.1 to 1000 nM |  | Cc1c(OCCCN2CCN(C)C(=O)C2)cccc1-c1cccc(OCCCN2CC[C@@H](O)C2)c1C [Example 2036, (R)-4-(3-((3′-(3-(3-hydroxypyrrolidin-1-yl)propoxy)-2,2′-dimethyl-[1,1′-biphenyl]-3-yl)oxy)propyl)-1-methylpiperazin-2-one]
0.04 to 20 nM |  | Cc1c(COc2cc(OCc3cc(F)cc(F)c3)c(CN[C@@](C)(CO)C(=O)O)cc2Cl)cccc1-c1cccc(COc2cc(OCc3cc(F)cc(F)c3)c(CN[C@@](C)(CO)C(=O)O)cc2Cl)c1C [Example 5009, (2S,2′S)-2,2′-((((((2,2′-dimethyl-[1,1′-biphenyl]-3,3′-diyl)bis(methylene))bis(oxy))bis(5-chloro-2-((3,5-difluorobenzyl)oxy)-4,1-phenylene))bis(methylene))bis(azanediyl))bis(3-hydroxy-2-methylpropanoic acid)]
20.1 to 90 nM |  | CC(=O)c1cc(Cl)c(OCc2cccc(-c3cccc(COc4cc(OCc5cncc(C#N)c5)c(CN[C@@H](C(=O)O)[C@H](C)O)cc4Cl)c3C)c2C)cc1OCc1cncc(C#N)c1 [Example 60090]
0.04 to 20 nM |  | Cc1c(COc2cc(OCc3cncc(C#N)c3)c(CNC(C)CC(=O)O)cc2Cl)cccc1-c1cccc(COc2cc(OCc3cncc(C#N)c3)c(CNC(C)CC(=O)O)cc2Cl)c1C (stereo not drawn) [Example 40400]
0.04 to 20 nM |  | Cc1c(COc2cc(OCc3cncc(C#N)c3)c(CNC(CO)(Cc3ccccc3)C(=O)O)cc2Cl)cccc1-c1cccc(COc2cc(OCc3cncc(C#N)c3)c(CNC(CO)(Cc3ccccc3)C(=O)O)cc2Cl)c1C (stereo not drawn) [Example 40200]
0.04 to 20 nM |  | N#Cc1cncc(COc2cc(OCc3cccc(-c4cccc(COc5cc(OCc6cncc(C#N)c6)c(CN6CCCC[C@H]6C(=O)O)cc5Cl)c4)c3)c(Cl)cc2CN2CCCC[C@H]2C(=O)O)c1 [Example 40050]
20.1 to 90 nM |  | Cc1c(OCCCN(C)Cc2ccncc2)cccc1-c1cccc(OCCCN2CC[C@@H](O)C2)c1C [Example 2064, (R)-1-(3-((2,2′-dimethyl-3′-(3-(methyl(pyridin-4-ylmethyl)amino)propoxy)-[1,1′-biphenyl]-3-yl)oxy)propyl)pyrrolidin-3-ol]
0.04 to 20 nM |  | Cc1c(COc2cc(OCc3cncc(C#N)c3)c(CN[C@@H](C(=O)O)[C@@H](C)O)cc2Cl)cccc1-c1cccc(COc2cc(OCc3cncc(C#N)c3)c(CN[C@@H](C(=O)O)[C@@H](C)O)cc2Cl)c1C [Example 40890]
90.1 to 1000 nM |  | Cc1c(NCCCN2CC[C@@H](O)C2)cccc1-c1cccc(OCCCN2CC[C@@H](O)C2)c1C [Example 3018, (R)-1-(3-((3′-(3-((R)-3-hydroxypyrrolidin-1-yl)propoxy)-2,2′-dimethyl-[1,1′-biphenyl]-3-yl)amino)propyl)pyrrolidin-3-ol]
